Data on five compounds can be found in US20090238808A1, “Process for the identification of novel enzyme interacting compounds” (priority 2005, published 2009).

What all share (assay): Kinobeads elution with test compound, mouse brain lysate, MS
Holding throughout (format): binding
Details in all cases: kinase released from kinobeads by specific elution

One test concerns the target T1, GSK3Aps (Mus musculus, UniProt Q2NL51).
T1 construct: from tissue; host or cells: mouse brain
As for the experimental part:
(§1) This example illustrates competitive elution of proteins bound to kinobeads with non-modified test compounds (see particularly the fourth aspect of the invention). The kinobeads (as described in example 1) were contacted with mouse brains lysate, bound proteins were eluted with various test compounds and the released proteins were analysed by mass spectrometry.
(§2) The kinobeads were contacted with mouse brain lysate under conditions that allow the binding of the proteins in the lysate to the ligands. The binding conditions were close to physiological by choosing suitable buffer conditions preserving the function of the proteins. After removing non-captured proteins through a gentle washing procedure the bound proteins were contacted with a test compound for protein elution.
(§3) Various test compounds (see section 2.7) were used to release bound proteins following these steps:
(§4) 1. Resuspend beads with bound proteins (section 2.4) in 1×DP buffer/0.2% NP-40 as 1:3 slurry (volume/volume). 2. Transfer 20 μl the 1:3 slurry into MoBiTech columns (equivalent to 5 μl of beads). 3. Place the column into an Eppendorf tube and centrifuge it for 15 seconds at 800 rpm at 4° C. Close columns with lower lid. 4. Add 10 μl elution buffer containing 1.0 mM of the test compound (concentration ranges of 0.1 to 1.0 mM are suitable). As a control use elution buffer containing 2% DMSO or 2% DMF dependent on the solvent used for dissolving the test compound. Close column with upper lid. 5. Incubate for 30 minutes at 4° C. in an Eppendorf incubator at 700 rpm. 6. Open column (first top, then bottom), put column back into siliconized tube (SafeSeal Microcentrifuge Tubes, cat. no 11270, Sorenson BioScience, Inc.). To harvest the eluate centrifuge 2 minutes at 2.000 rpm in table top centrifuge at room temperature. The typical volume of the eluate is approximately 15 μl. 7. Add 5 μl 4× NuPAGE SDS Sample Buffer (Invitrogen, NP0007) containing 100 mM DTT (DTT has to be added just prior to use). 8. Incubate for 30 minutes at 50° C. 9. Add 1/10 volume of 200 mg/ml iodoacetamide, incubate for 30 min at room temperature, protect from light. This reaction leads to the alkylation of cysteines for mass spectrometry. 10. Before loading samples onto the gel, centrifuge samples for 5 minutes at 15.000 rpm in order to remove precipitates. 11. For protein separation apply 10 μl sample to NuPAGE 4-12% Bis-Tris gel (Invitrogen, NPO335). 2.6 Preparation of Stock Solutions used in this Protocol
(§5) Search criteria varied depending on which mass spectrometer was used for the analysis.

In a further test the target is EphA4 (Mus musculus, UniProt Q03137). As for the experimental part: as §1, §2, §3, §4, §5
The next test relates to T2, RSK3 (Mus musculus).
T2 construct: from tissue; host or cells: mouse brain
T2 sequence (P18653 whole entry): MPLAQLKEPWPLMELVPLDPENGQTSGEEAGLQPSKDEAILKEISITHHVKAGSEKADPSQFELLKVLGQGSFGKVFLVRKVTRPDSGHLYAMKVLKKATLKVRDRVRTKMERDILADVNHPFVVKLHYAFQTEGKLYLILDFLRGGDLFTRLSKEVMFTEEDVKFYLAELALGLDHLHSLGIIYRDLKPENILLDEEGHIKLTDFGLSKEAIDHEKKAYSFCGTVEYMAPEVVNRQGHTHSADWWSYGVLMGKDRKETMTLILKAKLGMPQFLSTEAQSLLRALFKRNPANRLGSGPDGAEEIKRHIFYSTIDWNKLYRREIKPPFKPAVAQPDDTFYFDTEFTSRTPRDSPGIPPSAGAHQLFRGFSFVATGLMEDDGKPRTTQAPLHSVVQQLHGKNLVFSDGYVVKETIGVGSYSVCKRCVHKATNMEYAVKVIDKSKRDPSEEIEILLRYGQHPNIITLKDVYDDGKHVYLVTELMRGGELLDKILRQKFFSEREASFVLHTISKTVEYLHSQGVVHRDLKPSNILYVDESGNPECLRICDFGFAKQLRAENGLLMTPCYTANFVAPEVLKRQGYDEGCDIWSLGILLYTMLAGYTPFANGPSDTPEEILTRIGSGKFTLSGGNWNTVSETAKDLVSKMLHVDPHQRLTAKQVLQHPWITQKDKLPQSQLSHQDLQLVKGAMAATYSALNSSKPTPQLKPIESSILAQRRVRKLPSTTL
As for the experimental part:
as §1, §2, §3, §4, §5

A further test addresses T3, CaMK2d (Mus musculus, UniProt Q6PHZ2).
T3 construct: […]; from tissue; host or cells: mouse brain
How it is done:
as §1, §2, §3, §4, §5

The target of the next test is CDK5 (Mus musculus, UniProt P49615). As for the experimental part:
as §1, §2, §3, §4, §5

For another test, the target named is FER (Mus musculus, UniProt P70451). How it is done:
as §1, §2, §3, §4, §5

For a further test, the target named is T4, SRC (Mus musculus, UniProt P05480).
T4 construct: from tissue; host or cells: mouse brain
As for the experimental part:
as §1, §2, §3, §4, §5

A further test addresses T5, JNK2 (Mus musculus, UniProt Q9WTU6).
T5 construct: from tissue; host or cells: mouse brain
How it is done:
as §1, §2, §3, §4, §5

The target of another test is T6, PYK2 (Mus musculus, UniProt Q9QVP9).
T6 construct: from tissue; host or cells: mouse brain
T6 sequence (Q9QVP9 whole entry): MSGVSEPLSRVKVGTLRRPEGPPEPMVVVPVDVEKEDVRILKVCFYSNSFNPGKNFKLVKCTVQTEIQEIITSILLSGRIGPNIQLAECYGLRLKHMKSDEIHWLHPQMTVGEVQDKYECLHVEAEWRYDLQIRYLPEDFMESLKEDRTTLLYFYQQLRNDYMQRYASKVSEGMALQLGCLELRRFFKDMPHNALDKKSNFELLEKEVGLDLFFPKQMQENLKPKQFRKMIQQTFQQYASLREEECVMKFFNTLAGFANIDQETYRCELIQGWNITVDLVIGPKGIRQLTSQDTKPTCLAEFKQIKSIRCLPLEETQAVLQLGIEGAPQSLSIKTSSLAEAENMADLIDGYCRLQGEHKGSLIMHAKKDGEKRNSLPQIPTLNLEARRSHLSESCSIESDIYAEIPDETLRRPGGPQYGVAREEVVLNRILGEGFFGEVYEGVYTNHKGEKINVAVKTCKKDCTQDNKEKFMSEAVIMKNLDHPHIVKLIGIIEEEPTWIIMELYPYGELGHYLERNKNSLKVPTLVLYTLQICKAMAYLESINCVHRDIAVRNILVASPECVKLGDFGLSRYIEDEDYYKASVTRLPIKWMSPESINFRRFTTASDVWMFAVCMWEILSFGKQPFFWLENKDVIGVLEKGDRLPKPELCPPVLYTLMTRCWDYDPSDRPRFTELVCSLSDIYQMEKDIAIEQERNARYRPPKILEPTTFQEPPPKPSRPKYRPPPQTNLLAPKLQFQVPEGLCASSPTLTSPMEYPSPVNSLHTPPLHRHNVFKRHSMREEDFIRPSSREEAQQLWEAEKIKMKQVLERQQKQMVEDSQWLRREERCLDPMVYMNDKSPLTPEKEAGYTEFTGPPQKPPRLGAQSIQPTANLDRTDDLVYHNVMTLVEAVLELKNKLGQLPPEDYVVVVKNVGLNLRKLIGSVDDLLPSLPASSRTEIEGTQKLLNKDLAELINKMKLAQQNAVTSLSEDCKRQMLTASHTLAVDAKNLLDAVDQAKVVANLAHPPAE
As for the experimental part:
as §1, §2, §3, §4, §5

The next test deals with T7, EphB2 (Mus musculus, UniProt P54763).
T7 sequence (P54763 19-986): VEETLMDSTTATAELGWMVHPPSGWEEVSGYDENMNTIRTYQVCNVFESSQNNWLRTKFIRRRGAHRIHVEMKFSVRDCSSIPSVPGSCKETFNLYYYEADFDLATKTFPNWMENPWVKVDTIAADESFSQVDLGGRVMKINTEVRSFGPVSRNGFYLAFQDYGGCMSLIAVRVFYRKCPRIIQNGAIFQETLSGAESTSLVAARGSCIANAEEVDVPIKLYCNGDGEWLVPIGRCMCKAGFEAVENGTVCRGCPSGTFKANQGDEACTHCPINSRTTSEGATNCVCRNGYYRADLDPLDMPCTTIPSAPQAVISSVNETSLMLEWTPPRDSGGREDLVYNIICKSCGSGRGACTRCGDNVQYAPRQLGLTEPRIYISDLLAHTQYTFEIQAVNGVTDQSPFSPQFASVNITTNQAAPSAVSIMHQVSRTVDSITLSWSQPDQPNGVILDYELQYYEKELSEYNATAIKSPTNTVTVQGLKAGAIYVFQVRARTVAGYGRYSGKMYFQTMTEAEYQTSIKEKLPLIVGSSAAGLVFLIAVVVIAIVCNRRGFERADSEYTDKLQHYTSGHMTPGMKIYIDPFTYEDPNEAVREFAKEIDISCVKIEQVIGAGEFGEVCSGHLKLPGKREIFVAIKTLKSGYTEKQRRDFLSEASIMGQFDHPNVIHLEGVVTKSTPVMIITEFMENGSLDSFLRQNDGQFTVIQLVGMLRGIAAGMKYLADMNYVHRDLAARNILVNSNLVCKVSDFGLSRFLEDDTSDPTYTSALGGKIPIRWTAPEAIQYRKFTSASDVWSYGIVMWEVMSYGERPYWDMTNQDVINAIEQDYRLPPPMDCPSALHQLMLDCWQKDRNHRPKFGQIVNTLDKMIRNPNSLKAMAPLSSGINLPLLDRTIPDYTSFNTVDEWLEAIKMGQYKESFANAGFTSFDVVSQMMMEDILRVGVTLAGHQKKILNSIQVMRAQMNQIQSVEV
How it is done:
as §1, §2, §3, §4, §5

Another test deals with T8, Erk1ps5 (Mus musculus, UniProt Q63844).
T8 construct: […]; from tissue; host or cells: mouse brain
T8 sequence (Q63844 2-380 limits assumed): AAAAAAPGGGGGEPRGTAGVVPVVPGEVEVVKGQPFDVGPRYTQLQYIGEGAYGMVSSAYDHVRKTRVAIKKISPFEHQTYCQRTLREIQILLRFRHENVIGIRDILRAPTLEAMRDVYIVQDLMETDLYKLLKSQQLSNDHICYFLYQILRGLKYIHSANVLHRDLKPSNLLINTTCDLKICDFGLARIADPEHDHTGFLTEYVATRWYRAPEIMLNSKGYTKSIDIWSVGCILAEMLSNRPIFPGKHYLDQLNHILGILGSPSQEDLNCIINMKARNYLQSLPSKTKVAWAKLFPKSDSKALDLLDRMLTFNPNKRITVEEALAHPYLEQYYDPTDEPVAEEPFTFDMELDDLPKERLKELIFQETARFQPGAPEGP
As for the experimental part: as §1, §2, §3, §4, §5

T3 sequence (Q6PHZ2 whole entry): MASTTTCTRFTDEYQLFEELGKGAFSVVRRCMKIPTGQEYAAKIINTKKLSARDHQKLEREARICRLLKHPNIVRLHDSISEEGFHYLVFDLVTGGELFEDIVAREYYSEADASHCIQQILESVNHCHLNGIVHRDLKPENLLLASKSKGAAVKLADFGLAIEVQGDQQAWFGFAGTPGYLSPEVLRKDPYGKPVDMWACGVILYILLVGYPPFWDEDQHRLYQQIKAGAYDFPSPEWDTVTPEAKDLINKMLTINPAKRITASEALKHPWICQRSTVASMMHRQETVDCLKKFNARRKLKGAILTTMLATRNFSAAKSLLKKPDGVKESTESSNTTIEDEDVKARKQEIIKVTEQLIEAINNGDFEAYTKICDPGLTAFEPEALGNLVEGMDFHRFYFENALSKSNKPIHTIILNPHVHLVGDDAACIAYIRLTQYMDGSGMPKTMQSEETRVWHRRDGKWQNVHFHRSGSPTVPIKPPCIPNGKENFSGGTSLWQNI
T5 sequence (Q9WTU6 whole entry): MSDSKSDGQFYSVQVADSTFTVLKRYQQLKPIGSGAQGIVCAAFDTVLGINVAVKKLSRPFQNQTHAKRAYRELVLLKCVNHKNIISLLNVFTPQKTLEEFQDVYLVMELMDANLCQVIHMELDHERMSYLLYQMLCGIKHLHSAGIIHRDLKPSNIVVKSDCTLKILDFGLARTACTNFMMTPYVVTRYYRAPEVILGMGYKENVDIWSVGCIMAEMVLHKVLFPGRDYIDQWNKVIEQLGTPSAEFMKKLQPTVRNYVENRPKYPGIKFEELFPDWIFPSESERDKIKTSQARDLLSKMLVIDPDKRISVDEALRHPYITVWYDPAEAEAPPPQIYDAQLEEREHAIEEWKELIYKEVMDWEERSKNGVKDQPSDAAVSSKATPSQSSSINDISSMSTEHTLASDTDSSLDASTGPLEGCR
FER, sequence (P70451 whole entry): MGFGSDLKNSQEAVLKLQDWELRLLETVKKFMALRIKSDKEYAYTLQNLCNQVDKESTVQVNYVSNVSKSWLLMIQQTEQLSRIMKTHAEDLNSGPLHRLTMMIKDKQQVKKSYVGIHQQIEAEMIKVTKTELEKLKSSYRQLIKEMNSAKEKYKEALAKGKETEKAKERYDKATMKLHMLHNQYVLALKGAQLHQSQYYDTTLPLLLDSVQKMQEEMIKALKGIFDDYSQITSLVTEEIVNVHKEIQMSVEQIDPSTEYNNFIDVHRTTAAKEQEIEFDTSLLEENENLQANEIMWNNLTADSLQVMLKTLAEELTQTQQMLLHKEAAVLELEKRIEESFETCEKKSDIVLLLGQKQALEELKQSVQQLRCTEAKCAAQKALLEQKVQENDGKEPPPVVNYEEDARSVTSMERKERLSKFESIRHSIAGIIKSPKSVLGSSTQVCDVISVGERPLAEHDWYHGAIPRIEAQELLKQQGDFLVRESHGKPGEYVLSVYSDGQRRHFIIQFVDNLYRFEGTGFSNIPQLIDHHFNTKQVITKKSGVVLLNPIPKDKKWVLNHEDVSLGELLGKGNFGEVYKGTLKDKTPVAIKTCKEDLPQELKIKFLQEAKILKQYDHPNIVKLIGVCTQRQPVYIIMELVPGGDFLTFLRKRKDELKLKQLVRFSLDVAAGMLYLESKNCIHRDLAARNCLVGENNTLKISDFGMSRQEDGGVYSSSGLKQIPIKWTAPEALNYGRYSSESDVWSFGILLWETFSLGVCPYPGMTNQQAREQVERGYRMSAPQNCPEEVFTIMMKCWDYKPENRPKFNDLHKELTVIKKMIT
CDK5, sequence (P49615 whole entry): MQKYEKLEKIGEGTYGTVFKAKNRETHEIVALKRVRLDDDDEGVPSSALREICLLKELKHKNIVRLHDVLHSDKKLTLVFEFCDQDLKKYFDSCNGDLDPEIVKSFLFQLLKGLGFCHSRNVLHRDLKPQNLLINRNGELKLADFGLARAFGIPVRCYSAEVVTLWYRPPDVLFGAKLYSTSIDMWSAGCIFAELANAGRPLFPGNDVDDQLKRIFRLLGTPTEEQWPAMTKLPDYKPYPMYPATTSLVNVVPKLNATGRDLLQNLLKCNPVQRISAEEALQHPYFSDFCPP
T1 sequence (Q2NL51 2-490 limits assumed): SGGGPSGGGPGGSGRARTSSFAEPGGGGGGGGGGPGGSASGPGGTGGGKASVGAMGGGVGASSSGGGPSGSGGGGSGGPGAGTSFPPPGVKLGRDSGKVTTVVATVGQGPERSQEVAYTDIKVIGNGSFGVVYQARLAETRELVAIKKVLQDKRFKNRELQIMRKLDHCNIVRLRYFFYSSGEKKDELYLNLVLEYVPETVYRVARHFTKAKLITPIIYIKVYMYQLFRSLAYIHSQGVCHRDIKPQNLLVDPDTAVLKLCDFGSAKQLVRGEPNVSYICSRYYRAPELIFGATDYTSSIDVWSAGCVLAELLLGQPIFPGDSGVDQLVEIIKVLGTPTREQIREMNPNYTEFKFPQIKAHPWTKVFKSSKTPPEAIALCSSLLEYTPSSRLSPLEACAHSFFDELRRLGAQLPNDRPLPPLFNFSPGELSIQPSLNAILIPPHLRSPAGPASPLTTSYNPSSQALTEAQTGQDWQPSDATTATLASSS

For `Cn1c(=O)c(-c2c(Cl)cccc2Cl)cc2cnc(Nc3ccc(CN)cc3)cc21` [CZC7324], at GSK3Aps, the “mass spectrometry score, GSK3Aps” value is 154 and the “number of identified peptides, GSK3Aps” value came to 3. On EphA4, the “mass spectrometry score, EphA4” value amounted to 1233 and the “number of identified peptides, EphA4” value is 32. For the same compound, the “mass spectrometry score, RSK3” value with RSK3 (Mus musculus) turned out to be 312. In addition, at CaMK2d, the “mass spectrometry score, CaMK2d” value was 328 and the “number of identified peptides, CaMK2d” value is on record as 7. Moreover, on CDK5, the “mass spectrometry score, CDK5” value is listed as 462 and the “number of identified peptides, CDK5” value is reported as 11. Moreover, on FER, the “mass spectrometry score, FER” value amounted to 388 and the “number of identified peptides, FER” value is listed as 11. On SRC, the “mass spectrometry score, SRC” value is 351 and the “number of identified peptides, SRC” value came out at 9. Also, on JNK2, the “mass spectrometry score, JNK2” value worked out at 702 and the “number of identified peptides, JNK2” value is listed as 21. In addition, at PYK2, the “mass spectrometry score, PYK2” value was determined as 1401 and the “number of identified peptides, PYK2” value is recorded as 42. Besides, on EphB2, the “mass spectrometry score, EphB2” value is 1004 and the “number of identified peptides, EphB2” value was determined as 22. For the same compound, at Erk1ps5, the “mass spectrometry score, Erk1ps5” value was 557 and the “number of identified peptides, Erk1ps5” value stood at 77.
Turning to `NCc1ccc(Nc2ncc(F)c(Nc3ccccc3)n2)cc1` [CZC00008004], at GSK3Aps, the “mass spectrometry score, GSK3Aps” value turned out to be 635 and the “number of identified peptides, GSK3Aps” value was determined as 27. In addition, at EphA4, the “mass spectrometry score, EphA4” value worked out at 138 and the “number of identified peptides, EphA4” value is 3. On CaMK2d, the “mass spectrometry score, CaMK2d” value is listed as 444 and the “number of identified peptides, CaMK2d” value is 11. Also, at CDK5, the “mass spectrometry score, CDK5” value was determined as 794 and the “number of identified peptides, CDK5” value was determined as 27. Further, on FER, the “mass spectrometry score, FER” value is 100 and the “number of identified peptides, FER” value is on record as 2. In addition, on JNK2, the “mass spectrometry score, JNK2” value was found to be 662 and the “number of identified peptides, JNK2” value is recorded as 18. Besides, on PYK2, the “mass spectrometry score, PYK2” value was 1228 and the “number of identified peptides, PYK2” value stood at 58. At EphB2, the “mass spectrometry score, EphB2” value was 149 and the “number of identified peptides, EphB2” value is listed as 5. At Erk1ps5, the “mass spectrometry score, Erk1ps5” value is given as 386 and the “number of identified peptides, Erk1ps5” value is 26.
Consider `CNC1CC2OC(C)(C1OC)n1c3ccccc3c3c4c(c5c6ccccc6n2c5c31)C(=O)NC4` (stereo not shown) [CZC9280], for which, on GSK3Aps, the “mass spectrometry score, GSK3Aps” value is 868 and the “number of identified peptides, GSK3Aps” value amounted to 47. Moreover, on EphA4, the “mass spectrometry score, EphA4” value amounted to 332 and the “number of identified peptides, EphA4” value stood at 11. Further, in the test on RSK3 (Mus musculus), the “mass spectrometry score, RSK3” value came out at 721. In addition, on CaMK2d, the “mass spectrometry score, CaMK2d” value was determined as 822 and the “number of identified peptides, CaMK2d” value came to 40. At CDK5, the “mass spectrometry score, CDK5” value was found to be 861 and the “number of identified peptides, CDK5” value turned out to be 43. Besides, at FER, the “mass spectrometry score, FER” value worked out at 818 and the “number of identified peptides, FER” value is 21. On SRC, the “mass spectrometry score, SRC” value is listed as 546 and the “number of identified peptides, SRC” value is 13. For the same compound, at PYK2, the “mass spectrometry score, PYK2” value is given as 1978 and the “number of identified peptides, PYK2” value is 82. Moreover, on EphB2, the “mass spectrometry score, EphB2” value was 114 and the “number of identified peptides, EphB2” value was found to be 4. At Erk1ps5, the “mass spectrometry score, Erk1ps5” value turned out to be 71 and the “number of identified peptides, Erk1ps5” value came out at 2.
For `CC(C)[C@H](CO)Nc1nc(Nc2ccc(C(=O)O)c(Cl)c2)c2ncn(C(C)C)c2n1` [Purvalanol B, reference compound], on GSK3Aps, the “mass spectrometry score, GSK3Aps” value came to 357 and the “number of identified peptides, GSK3Aps” value was 6. Moreover, on EphA4, the “mass spectrometry score, EphA4” value turned out to be 1702 and the “number of identified peptides, EphA4” value is 37. The “mass spectrometry score, RSK3” value with RSK3 (Mus musculus) was 401. Further, at CaMK2d, the “mass spectrometry score, CaMK2d” value came out at 473 and the “number of identified peptides, CaMK2d” value is 12. On CDK5, the “mass spectrometry score, CDK5” value was 1086 and the “number of identified peptides, CDK5” value amounted to 41. At FER, the “mass spectrometry score, FER” value is 322 and the “number of identified peptides, FER” value turned out to be 8. Further, at SRC, the “mass spectrometry score, SRC” value came out at 544 and the “number of identified peptides, SRC” value is listed as 13. Besides, at JNK2, the “mass spectrometry score, JNK2” value amounted to 277 and the “number of identified peptides, JNK2” value was determined as 7. Moreover, on PYK2, the “mass spectrometry score, PYK2” value came to 1909 and the “number of identified peptides, PYK2” value amounted to 48. At EphB2, the “mass spectrometry score, EphB2” value was determined as 1334 and the “number of identified peptides, EphB2” value is 30. Besides, on Erk1ps5, the “mass spectrometry score, Erk1ps5” value came to 749 and the “number of identified peptides, Erk1ps5” value stood at 48.
For the compound `CCCCCCCCCCCCOS(=O)(=O)[O-].[Na+]` [SDS], at GSK3Aps, the “mass spectrometry score, GSK3Aps” value was 585 and the “number of identified peptides, GSK3Aps” value is 77. Further, on EphA4, the “mass spectrometry score, EphA4” value was determined as 727 and the “number of identified peptides, EphA4” value is recorded as 33. The “mass spectrometry score, RSK3” value in the test on RSK3 (Mus musculus) stood at 107. Moreover, on CaMK2d, the “mass spectrometry score, CaMK2d” value is on record as 434 and the “number of identified peptides, CaMK2d” value was determined as 36. Moreover, at CDK5, the “mass spectrometry score, CDK5” value was 604 and the “number of identified peptides, CDK5” value was 21. On FER, the “mass spectrometry score, FER” value was 275 and the “number of identified peptides, FER” value came out at 11. For the same compound, at SRC, the “mass spectrometry score, SRC” value is 419 and the “number of identified peptides, SRC” value came to 25. Moreover, on JNK2, the “mass spectrometry score, JNK2” value came out at 369 and the “number of identified peptides, JNK2” value is reported as 20. Besides, on PYK2, the “mass spectrometry score, PYK2” value worked out at 809 and the “number of identified peptides, PYK2” value was determined as 39. Further, at EphB2, the “mass spectrometry score, EphB2” value is recorded as 437 and the “number of identified peptides, EphB2” value came to 19. Further, on Erk1ps5, the “mass spectrometry score, Erk1ps5” value is on record as 239 and the “number of identified peptides, Erk1ps5” value came out at 8.
